Here are results for 28 molecules from patent publication US9994509B2, “Inhibitors of viral replication, their process of preparation and their therapeutical uses” (HIVIH, priority 2013, dated 2018).

The first experiment deals with NL4-3 strain of HIV-1. The experiment is described as follows: HIV-1 replication assay: cyto-protection of MT4 cells infected with NL4-3 virus, CellTiter-Glo viability readout. The experiment is classed as cell-based. As to conditions: Human immunodeficiency virus 1, NL43, 120 h; concentration leading to 50% of cyto-protection; MT4 cells infected with NL4-3 virus; 5 days incubation; CellTiter-Glo; read-out: EC50. As for the experimental part: The antiviral activity, particularly against HIV, of compounds according to the invention is evaluated by the protocol described below.
Preparation of Virus stock of the NL4-3 strain of HIV-1 (Adachi et al, J Virol, 1986, 59(2):284-91).
The virus was prepared as described in Lopez et al (Lopez et al, Proc Natl Acad Sci USA., 2006, 103(40):14947-52, by transfecting 2×10^6 293 T cells (CRL-1573, ATCC) with following modifications: 6 μg of NL4-3 proviral DNA molecular clone were mixed with X-tremeGENE 9 DNA transfection reagent from Roche, and used according to manufacturer's instructions. Twenty four hours later, cells were washed and fresh medium added. Forty eight hours after transfection, cell supernatants were harvested, filtered through 0.45-μm-pore-size filters, quantified for HIV-1 p24 antigen by using an Innotest HIV antigen mAb assay (Ingen) according to manufacturer's instructions, and used in infection experiments.
Serial dilutions of compounds to be tested were prepared in complete RPMI medium from 10 mM DMSO stock solutions, and distributed in a volume of 20 μl in 96 well tissue-culture treated plates (Costar 3917), in order to get 0.5% DMSO final concentration in each well, after the addition of infected cells. Control wells contained also 0.5% DMSO final concentration but no compound.
MT4 cells (from the NIH AIDS Research and Reference Reagent Program) in RPMI complete medium were counted (10×10^6 cells per well in Falcon 353047 Multiwell™ 24 well) and infected for 2 hours at 37°, at a multiplicity of infection (moi) of 0.0001-0.00001. Cells were then centrifuged for 3 min at 3000 rpm, and washed two times in 1 ml PBS to remove viruses that have not entered the cells. Infected cells were resuspended in complete RPMI at 1.25×10^6 cells/ml, and 80 μl of infected cells were distributed in each well containing compounds to be tested or control wells. The plates were then incubated at 37° C. for 5 days.
Assay used to measure the inhibition of HIV replication by the compounds (according to Gregg S. Jones et al., Antimicrobial Agents and Chemotherapy, 2009, 53 (3): 1194-1203).
After 5 days of incubation, microplates were equilibrated to room temperature for 30 min and then 50 μl of CellTiter-Glo reagent (Promega Biosciences, Inc., Madison Wis., USA) were added to each well. Cell lysis was carried out at room temperature during 10 min and luminescence was read on a Fluoroskan (Thermo Scientific).
The EC50, or effective concentration 50, is the concentration of compound leading to 50% of cyto-protection in a CellTiter-Glo® viability assay based on MT4 cells infected with NL4-3 virus (table 1).
Background: ATP-based viability assays read luminescence as a measure of living cells.
In general, EC50 refers to the concentration at which the effect is half-maximal. On to `Cc1ccc(C2CC2)c(-c2ccc3c(c2C)CCCO3)c1[C@H](OC(C)(C)C)C(=O)O` (atropisomer, axis not shown) [Example 38, (S)-tert-butoxy-[3-cyclopropyl-6-methyl-2-(5-methyl-chroman-6-yl)-phenyl]-acetic acid], for which the half-maximal effective concentration (EC50) was determined as 3 nM.
Take `Cc1ccc(C2CC2)c(-c2ccc3c(c2C)CCCO3)c1[C@H](OC1CC1)C(=O)O` (atropisomer, axis not shown) [Example 40, (S)-cyclopropoxy-[3-cyclopropyl-6-methyl-2-(5-methyl-chroman-6-yl)-phenyl]-acetic acid]: the EC50 turned out to be 14 nM.
`Cc1ccc(C2CC2)c(-c2cc(F)c3c(c2C)CCCO3)c1[C@H](OC(C)(C)C)C(=O)O` (atropisomer, axis not shown) [Example 41, (S)-tert-butoxy-[3-cyclopropyl-2-(8-fluoro-5-methyl-chroman-6-yl)-6-methyl-phenyl]-acetic acid]: the EC50 came out at 6 nM.
Turning to `Cc1ccc(C2CC2)c(-c2cc(F)c3c(c2C)CCCO3)c1[C@H](OC1CC1)C(=O)O` (atropisomer, axis not shown) [Example 44, (S)-cyclopropoxy-[3-cyclopropyl-2-(8-fluoro-5-methyl-chroman-6-yl)-6-methyl-phenyl]-acetic acid], the concentration for a half-maximal effect (EC50) was 17 nM.
For the molecule `Cc1ccc([C@@H]2C[C@@H]2C)c(-c2ccc3c(c2)CCCO3)c1C(OC(C)(C)C)C(=O)O` (relative stereo) [Example 26, tert-Butoxy-[2-chroman-6-yl-6-methyl-3-(cis-2-methyl-cyclopropyl)-phenyl]-acetic acid], the EC50 turned out to be 300 nM.
Still for that read-out and setting: then `Cc1ccc(C2CC2)c(-c2ccc3c(c2)CCCO3)c1C(OC(C)(C)C)C(=O)O` (stereo not shown) [Example 1, 2-(tert-butoxy)-2-[3-cyclopropyl-2-(3,4-dihydro-2H-1-benzopyran-6-yl)-6-methylphenyl]acetic acid], with 17 nM.
With `CC(C)(C)OC(C(=O)O)c1c(C(F)(F)F)ccc(C2CC2)c1-c1ccc2c(c1)CCCO2` (stereo not shown) [Example 2, 2-(tert-butoxy)-2-[3-cyclopropyl-2-(3,4-dihydro-2H-1-benzopyran-6-yl)-6-(trifluoromethyl)phenyl]acetic acid], the EC50 amounted to 90 nM.
For the molecule `C=C(C)c1ccc(C)c(C(OC(C)(C)C)C(=O)O)c1-c1ccc2c(c1)CCCO2` (stereo not shown) [Example 4, 2-(tert-butoxy)-2-[2-(3,4-dihydro-2H-1-benzopyran-6-yl)-3-isopropenyl-6-methylphenyl]acetic acid], the EC50 stood at 34 nM.
Consider `Cc1ccc(C(C)C)c(-c2ccc3c(c2)CCCO3)c1C(OC(C)(C)C)C(=O)O` (stereo not shown) [Example 5, 2-(tert-butoxy)-2-[2-(3,4-dihydro-2H-1-benzopyran-6-yl)-3-isopropyl-6-methylphenyl]acetic acid], for which the EC50 came out at 23 nM.
With `CC(C)(C)OC(C(=O)O)c1c(C(F)(F)F)ccc(C2CCCC2)c1-c1ccc2c(c1)CCCO2` (stereo not shown) [Example 6, 2-(tert-butoxy)-2-[3-(cyclopentyl)-2-(3,4-dihydro-2H-1-benzopyran-6-yl)-6-(trifluoromethyl)phenyl]acetic acid], the EC50 was 270 nM.
With `COc1c(-c2nc3ccccc3[nH]2)cc(C(F)(F)F)c(C(OC(C)(C)C)C(=O)O)c1-c1ccc2c(c1)CCCO2` (stereo not shown) [Example 7, 2-[4-(1H-1,3-benzodiazol-2-yl)-2-(3,4-dihydro-2H-1-benzopyran-6-yl)-3-methoxy-6-(trifluoromethyl)phenyl]-2-(tert-butoxy)acetic acid], the EC50 stood at 62 nM.
Consider `C=C(C)c1ccc(C(F)(F)F)c(C(OC(C)(C)C)C(=O)O)c1-c1ccc2c(c1)CCCO2` (stereo not shown) [Example 8, 2-(tert-butoxy)-2-[2-(3,4-dihydro-2H-1-benzopyran-6-yl)-3-(prop-1-en-2-yl)-6-(trifluoromethyl)phenyl]acetic acid], for which the EC50 came to 190 nM.
Turning to `C=Cc1ccc(C(F)(F)F)c(C(OC(C)(C)C)C(=O)O)c1-c1ccc2c(c1)CCCO2` (stereo not shown) [Example 9, 2-(tert-butoxy)-2-[2-(3,4-dihydro-2H-1-benzopyran-6-yl)-3-ethenyl-6-(trifluoromethyl)phenyl]acetic acid], the EC50 is 500 nM.
Consider `CC(C)c1ccc(C(F)(F)F)c(C(OC(C)(C)C)C(=O)O)c1-c1ccc2c(c1)CCCO2` (stereo not shown) [Example 10, 2-(tert-butoxy)-2-[2-(3,4-dihydro-2H-1-benzopyran-6-yl)-3-(propan-2-yl)-6-(trifluoromethyl)phenyl]acetic acid], for which the EC50 stood at 84 nM.
With `CCc1ccc(C(F)(F)F)c(C(OC(C)(C)C)C(=O)O)c1-c1ccc2c(c1)CCCO2` (stereo not shown) [Example 11, 2-(tert-butoxy)-2-[2-(3,4-dihydro-2H-1-benzopyran-6-yl)-3-ethyl-6-(trifluoromethyl)phenyl]acetic acid], the EC50 worked out at 360 nM.
With `COc1ccc(-c2c(C3CC3)ccc(C)c2C(OC(C)(C)C)C(=O)O)cc1` (stereo not shown) [Example 12, 2-(tert-butoxy)-2-(6-cyclopropyl-4′-methoxy-3-methyl-biphenyl-2-yl]acetic acid], the EC50 worked out at 78 nM.
Regarding `Cc1ccc(C2CC2)c(-c2ccc3c(c2)CCCO3)c1[C@H](OC(C)(C)C)C(=O)O` [Example 13, (S)-2-(tert-butoxy)-2-[3-cyclopropyl-2-(3,4-dihydro-2H-1-benzopyran-6-yl)-6-methylphenyl]acetic acid], the EC50 is 8 nM.
As to `Cc1ccc(-c2c(C3CC3)ccc(C)c2C(OC(C)(C)C)C(=O)O)cc1` (stereo not shown) [Example 14, 2-(tert-butoxy)-2-(6-cyclopropyl-3,4′-dimethyl-biphenyl-2-yl)-acetic acid], the EC50 stood at 51 nM.
Consider `Cc1ccc(C2CC2)c(-c2ccc(F)cc2)c1C(OC(C)(C)C)C(=O)O` (stereo not shown) [Example 15, 2-(tert-butoxy)-2-(6-cyclopropyl-4′-fluoro-3-methyl-biphenyl-2-yl)-acetic acid], for which the EC50 worked out at 340 nM.
As for `Cc1ccc(C2CC2)c(-c2ccc3c(c2C)CCCO3)c1C(OC(C)(C)C)C(=O)O` (stereo not shown) [Example 16, 2-(tert-butoxy)-2-[3-cyclopropyl-6-methyl-2-(5-methyl-chroman-6-yl)-phenyl]acetic acid], the EC50 turned out to be 9 nM.
Take `Cc1ccc(C2C[C@H]2C2CC2)c(-c2ccc3c(c2)CCCO3)c1C(OC(C)(C)C)C(=O)O` (stereo partly drawn) [Example 17, (trans-3-bicyclopropyl-2-yl-2-chroman-6-yl-6-methyl-phenyl)-tert-butoxy-acetic acid]: the EC50 came out at 330 nM.
For `Cc1ccc(C2CC2)c(C2=CCC(C)(C)CC2)c1C(OC(C)(C)C)C(=O)O` (stereo not shown) [Example 18, 2-(tert-butoxy)-2-[3-cyclopropyl-2-(4,4-dimethyl-cyclohex-1-enyl)-6-methyl-phenyl]acetic acid], the EC50 was found to be 19 nM.
With `CCOC(C(=O)O)c1c(C)ccc(C2CC2)c1-c1ccc2c(c1)CCCO2` (stereo not shown) [Example 19, 2-(2-chroman-6-yl-3-cyclopropyl-6-methyl-phenyl)-2-ethoxy-acetic acid], the EC50 is 400 nM.
As to `Cc1ccc(C2CC2)c(-c2ccc(Cl)cc2)c1C(OC(C)(C)C)C(=O)O` (stereo not shown) [Example 20, 2-(tert-butoxy)-2-(4′-chloro-6-cyclopropyl-3-methyl-biphenyl-2-yl)acetic acid], the EC50 came to 54 nM.
Regarding `Cc1ccc(C2CC2)c(-c2cc(F)c3c(c2C)CCCO3)c1C(OC(C)(C)C)C(=O)O` (stereo not shown) [Example 21, tert-butoxy-[3-cyclopropyl-2-(8-fluoro-5-methyl-chroman-6-yl)-6-methyl-phenyl]-acetic acid], the EC50 came out at 14 nM.
Still for that read-out and setting: next, `Cc1ccc(C2CC2)c(-c2ccc3c(c2)CCCO3)c1C(OC1CC1)C(=O)O` (stereo not shown) [Example 23, 2-[3-cyclopropyl-2-(3,4-dihydro-2H-1-benzopyran-6-yl)-6-methylphenyl]-2-cyclopropoxyacetic acid]: 100 nM; `Cc1ccc(C2CC2)c(-c2ccc3c(c2)CCCO3)c1[C@H](OC1CC1)C(=O)O` [Example 24, (S)-2-[3-cyclopropyl-2-(3,4-dihydro-2H-1-benzopyran-6-yl)-6-methylphenyl]-2-cyclopropoxyacetic acid]: 42 nM.

The same experiment, now with this note: Human immunodeficiency virus 1, NL43, MT4, 120 h.
Consider `Cc1ccc(CC2CC2)c(-c2ccc3c(c2)CCCO3)c1C(OC(C)(C)C)C(=O)O` (stereo not shown) [Example 22, tert-Butoxy-(2-chroman-6-yl-3-cyclopropylmethyl-6-methyl-phenyl)-acetic acid], for which the EC50 worked out at 91 nM.
